Reference: publication PMC6750840 (Journal of Medicinal Chemistry, 2019)

Assays:
[1] = test system: histamine-induced flare response; conditions: after oral administration; cited from earlier work
[2] = after administration; cited from earlier work
[3] = test system: H1R; conditions: cited from earlier work
[4] = target: human H1R (Homo sapiens, UniProt P35367); assay: Binding rate constants of [3H]levocetirizine; conditions: four concentrations (1–35 nM), 360 min, 37 °C
Chain of human H1R (P35367 whole entry): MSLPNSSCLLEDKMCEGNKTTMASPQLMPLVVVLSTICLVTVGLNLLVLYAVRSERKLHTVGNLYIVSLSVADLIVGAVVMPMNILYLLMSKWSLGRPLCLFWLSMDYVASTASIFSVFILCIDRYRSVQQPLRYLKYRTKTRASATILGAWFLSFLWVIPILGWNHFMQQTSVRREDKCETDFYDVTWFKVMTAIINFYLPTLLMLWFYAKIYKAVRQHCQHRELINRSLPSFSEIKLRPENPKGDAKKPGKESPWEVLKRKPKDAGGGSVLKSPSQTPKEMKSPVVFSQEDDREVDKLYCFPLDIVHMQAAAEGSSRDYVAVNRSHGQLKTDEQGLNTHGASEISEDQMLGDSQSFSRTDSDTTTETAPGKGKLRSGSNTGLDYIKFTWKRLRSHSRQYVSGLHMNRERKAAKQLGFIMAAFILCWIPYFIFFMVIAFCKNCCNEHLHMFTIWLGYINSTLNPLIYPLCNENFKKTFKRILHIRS

Compound: Cc1cncc(CN2CCC(=C3c4ccc(Cl)cc4CCc4cccnc43)CC2)c1 [Compound 1, rupatadine]
- duration of antagonism of the histamine-induced flare response [1]: up to 72 h
- time up to which plasma levels could be detected [2]: up to 12 h

Compound: O=C(O)COCCN1CCN([C@H](c2ccccc2)c2ccc(Cl)cc2)CC1 [levocetirizine]
- fold longer residence time at the H1R than mepyramine [3]: 100 fold

Compound: (R)-5-(4-((4-Chlorophenyl)([4-^3H]phenyl)methyl)piperazin-1-yl)pentanoic Acid [[^3H]levocetirizine]
- koff [4]: 0.022 ± 0.003 min^–1
- kon [4]: 3.7 ± 0.4 10^6 min^–1 M^–1
